Source: patent US9079838B2, “Ortho-phenylphenol compounds” (Dow Global Technologies LLC, priority 2011, dated 2015)

Columns and labels:
[1] = solubility in organic solvents at −10° C.; assay type: physicochemical; conditions: for soluble at (concentration) in NMP / soluble at (concentration) in tetralin / soluble at (concentration) in dipropylene glycol dimethyl ether / soluble at (concentration) in DMAc: −10° C.; for soluble at (concentration) in AROMATIC 200: AROMATIC 200, −10° C.
[2] = Solubility of Ex. 13 Product: 10% w/w solution in AROMATIC 200 stored in −11° C. freezer; assay type: physicochemical; conditions: 10% w/w in AROMATIC 200, −11° C. freezer, 2 weeks
Protocol: Solubility of Ex. 13 Product: A solution (10% w/w) in AROMATIC 200 was prepared at room temperature. The clear solution was placed in a −11° C. freezer for 2 weeks.

Row | melting point | soluble at (concentration) in NMP [1] | soluble at (concentration) in tetralin [1] | soluble at (concentration) in AROMATIC 200 [1] | soluble at (concentration) in dipropylene glycol dimethyl ether [1] | soluble at (concentration) in DMAc [1] | SMILES | crystallization from solution on cold storage [2]
1 | 149 to 151 °C | 10% |  |  |  |  | c1ccc(-c2ccccc2OCc2ccc(-c3ccc(COc4ccccc4-c4ccccc4)cc3)cc2)cc1 [4,4′-bis(([1,1′-biphenyl]-2-yloxy)methyl)-1,1′-biphenyl] | 
2 | 42 to 45 °C |  | < 5% |  |  |  | CCCCCCCCCCCCCCCCCCOc1ccccc1-c1ccccc1 [2-(octadecyloxy)-1,1′-biphenyl] | 
3 | 27 to 29 °C |  | 10% | 10% | 10% |  | CCCCCCCCCCCCOc1ccccc1-c1ccccc1 [2-(dodecyloxy)-1,1′-biphenyl] | 
4 |  |  | 7.5% |  |  |  | CCCCCCCCCCCCCCOc1ccccc1-c1ccccc1 [2-(tetradecyloxy)-1,1′-biphenyl] | 
5 |  | 10% | 10% | 10% | 10% | 10% | c1ccc(-c2ccccc2OCc2ccccc2COc2ccccc2-c2ccccc2)cc1 [1,2-bis(([1,1′-biphenyl]-2-yloxy)-methyl)benzene] | 
6 | 140 to 142 °C | 10% |  |  |  |  | c1ccc(-c2ccccc2OCc2ccc(COc3ccccc3-c3ccccc3)cc2)cc1 [1,4-bis(([1,1′-biphenyl]-2-yloxy)-methyl)benzene] | 
7 | 62 to 67 °C | 10% |  |  | 10% | 10% | c1ccc(-c2ccccc2OCCCCOc2ccccc2-c2ccccc2)cc1 [1,4-bis([1,1′-biphenyl]-2-yloxy)butane] | 
8 |  |  |  |  |  |  | O=C(Oc1ccccc1-c1ccccc1)c1ccccc1 [Ex. 13 Product, [1,1′-biphenyl]-2-yl benzoate] | No visibly detectable crystallization occurred
